In US8008456B2, “Compositions containing, methods involving, and uses of non-natural amino acids and polypeptides” (Ambrx, Inc., priority 2004, dated 2011):
Read-outs that look alike come from different tables or passages of the source.

How the values were obtained:
[1] = Intracellular concentration of non-natural amino acids (cellular uptake); assay type: in vitro ADME
Source text: Non-natural amino acid uptake by a eukaryotic cell is one issue that is typically considered when designing and selecting non-natural amino acids, including but not limited to, for incorporation into a protein. […] Natural amino acids are taken up into the eukaryotic cell via a collection of protein-based transport systems. A rapid screen can be done which assesses which non-natural amino acids, if any, are taken up by cells (examples 15 & 16 herein illustrate non-limiting examples of tests which can be done on non-natural amino acids). See, e.g., the toxicity assays in, e.g., the U.S. Patent Publication No. 2004/198637 entitled “Protein Arrays,” which is herein incorporated by reference in its entirety, and Liu, D. R. & Schultz, P. G. (1999) Progress toward the evolution of an organism with an expanded genetic code. PNAS United States 96:4780-4785. Although uptake is easily analyzed with various assays, an alternative to designing non-natural amino acids that are amenable to cellular uptake pathways is to provide biosynthetic pathways to create amino acids in vivo.
(§1) This example provides results of four tests that were conducted on certain illustrative non-natural amino acids as an aid for predicting their properties for incorporation into non-natural amino acid polypeptides.

[2] = tested on: aminoacyl-tRNA synthetase (RS); assay: RS test
Experimental: as §1

Compound	Intracellular Concentration [1] [µM]	RS test [2]	Intracellular Concentration ([1]; remark in words)
CC(=O)COc1ccc(C[C@H](N)C(=O)O)cc1	1000 to 1800		
CC(C)=NOCOc1ccc(C[C@H](N)C(=O)O)cc1	60		
CC(C)=NOCc1ccc(C[C@H](N)C(=O)O)cc1	300		

Other lines, results leading:

Intracellular Concentration [1] [µM]	RS test [2]	Intracellular Concentration ([1]; remark in words)	Compound
600	✓		CC(=O)c1ccc(C[C@H](N)C(=O)O)cc1
30	✓		CC(=O)N/N=C/c1ccc(C[C@H](N)C(=O)O)cc1
376			CC(=O)C(=O)Nc1ccc(C[C@H](N)C(=O)O)cc1
		Reduced [M + 2]	CC(=O)C(=O)c1ccc(C[C@H](N)C(=O)O)cc1
	Meta- bolized		CC(=O)CC(=O)c1ccc(C[C@H](N)C(=O)O)cc1
